ChEMBL document CHEMBL3046323, “Photosynthetic Electron Transport Inhibitory and Herbicidal Activities of 2-(N-Acylbenzylamino)-4-methyl-6-fluoroalkyl-1, 3, 5-triazine Derivatives” (J Pestic Sci, 2001)

Experiments:
[1] = test system: Amaranthus blitum subsp. oleraceus; test: Herbicidal activity against Amaranthus blitum subsp. Oleraceus at 4 kg/ha treated as soil application at pre-emergence after 3 weeks; type: functional
[2] = test system: Chenopodium album; test: Herbicidal activity against Chenopodium album at 4 kg/ha treated as soil application at pre-emergence after 3 weeks; type: functional
[3] = test system: Echinochloa crus-galli var. crus-galli; test: Herbicidal activity against Echinochloa crus-galli var. crus-galli at 4 kg/ha treated as soil application at pre-emergence after 3 weeks; type: functional
[4] = test system: Digitaria ciliaris; test: Herbicidal activity against Digitaria ciliaris at 4 kg/ha treated as soil application at pre-emergence after 3 weeks; type: functional
[5] = test system: Persicaria longiseta; test: Herbicidal activity against Persicaria longiseta at 4 kg/ha treated as paddy application at pre-emergence after 3 weeks; type: functional
[6] = test system: Chenopodium album; test: Herbicidal activity against Chenopodium album at 4 kg/ha treated as paddy application at pre-emergence after 3 weeks; type: functional
[7] = test system: Digitaria ciliaris; test: Herbicidal activity against Digitaria ciliaris at 4 kg/ha treated as paddy application at pre-emergence after 3 weeks; type: functional
[8] = test system: Echinochloa crus-galli var. crus-galli; test: Herbicidal activity against Echinochloa crus-galli var. crus-galli at 4 kg/ha treated as paddy application at pre-emergence after 3 weeks; type: functional
[9] = test system: Pontederia vaginalis; test: Herbicidal activity against Monochoria vaginalis at 4 kg/ha treated as foliar application at post-emergence after 3 weeks; type: functional
[10] = test system: Schoenoplectiella juncoides; test: Herbicidal activity against Schoenoplectiella juncoides var. Hotarui Ohwi at 4 kg/ha treated as foliar application at post-emergence after 3 weeks; type: functional
[11] = test system: Echinochloa oryzicola; test: Herbicidal activity against Echinochloa oryzicola at 4 kg/ha treated as foliar application at post-emergence after 3 weeks; type: functional
[12] = test system: Persicaria longiseta; test: Herbicidal activity against Persicaria longiseta at 4 kg/ha treated as soil application at pre-emergence after 3 weeks; type: functional
[13] = Inhibition of photosynthetic electron transport in Spinacia oleracea leaf thylakoids assessed as oxygen formation
[14] = test system: Rotala indica; test: Herbicidal activity against Rotala indica at 4 kg/ha treated as foliar application at post-emergence after 3 weeks; type: functional

Structure (SMILES) | Activity [1] | Activity [2] | Activity [3] | Activity [4] | Activity [5] | Activity [6] | Activity [7] | Activity [8] | Activity [9] | Activity [10] | Activity [11] | Activity [12] | pI50 [13] | Activity [14]
Cc1nc(N(C=O)Cc2ccccc2)nc(C(F)(F)F)n1 | 76% | 100% | 76% | 76% | 100% | 100% | 76% | 76% | 26% | 0% | 0% | 91% | – | –
Cc1nc(NCc2ccc(Cl)cc2)nc(C(F)F)n1 | – | – | – | – | – | – | – | – | – | – | – | – | 6.62 | –
CCCc1nc(C)nc(N(C=O)Cc2ccc(Cl)cc2)n1 | 76% | 91% | 51% | 91% | 100% | 100% | 1% | 100% | 76% | 1% | 0% | 100% | – | 100%
Cc1nc(N(C=O)Cc2ccc(Cl)cc2)nc(C(F)(F)F)n1 | 91% | 100% | 100% | 91% | 100% | 100% | 91% | 100% | 100% | 91% | 91% | 100% | – | 100%
Cc1nc(NCc2ccc(Cl)cc2)nc(C(F)(F)F)n1 | – | 100% | 100% | 100% | 91% | 91% | 100% | 100% | 100% | 100% | 91% | – | 6.97 | 91%
Cc1nc(N(Cc2ccccc2)C(=O)C(C)(C)C)nc(C(F)(F)F)n1 | – | – | 26% | 51% | – | – | – | – | – | – | – | – | – | –
CCCC(=O)N(Cc1ccccc1)c1nc(C)nc(C(F)(F)F)n1 | 76% | 76% | 51% | 51% | 1% | 100% | 51% | 100% | 51% | 0% | 0% | 51% | – | 26%
CCC(=O)N(Cc1ccccc1)c1nc(C)nc(C(F)(F)F)n1 | 91% | 91% | 76% | 91% | 100% | 100% | 76% | 76% | 26% | 0% | 0% | 91% | – | –
Cc1nc(NCc2ccccc2)nc(C(F)(F)F)n1 | – | 100% | 76% | 91% | 76% | 76% | 91% | 100% | 91% | 91% | 76% | – | – | 76%
CCNc1nc(Cl)nc(NC(C)C)n1 [ATRAZINE] | – | – | – | – | 91% | 91% | – | – | 100% | 76% | 91% | – | – | –
Cc1nc(C(F)F)nc(N(C=O)Cc2ccc(Cl)cc2)n1 | 100% | 100% | 100% | 91% | 100% | 100% | 76% | 76% | 100% | 76% | 91% | 100% | – | 100%
CC(=O)N(Cc1ccccc1)c1nc(C)nc(C(F)(F)F)n1 | – | 100% | 0% | 1% | 51% | 100% | 0% | 76% | 100% | 100% | 100% | – | – | –
Cc1nc(N(C=O)Cc2ccc(Cl)cc2)nc(C(F)(F)C(F)(F)F)n1 | 100% | 91% | 100% | 100% | 100% | 100% | 76% | 100% | 100% | 100% | 76% | 100% | – | 100%
CCNc1nc(Cl)nc(NCC)n1 [SIMAZINE] | 91% | 91% | 26% | 51% | – | – | – | – | – | – | – | – | 6.28 | –
